Results as given in patent EP1081131A1 (priority 1998, dated 1999).

Key:
Type in all cases: cell-based, mycobacteria of tuberculosis
[1] = test system: Resistant to streptomycin; experiment: Bacteriostatic activity on patient strains (Table 4); settings: taken from patients, Central SRI of Tuberculosis RAMS 1997
Resistant to rifamycin = experiment: as above; settings: taken from patients, Central SRI of Tuberculosis RAMS 1997
Resistant to isoniazid = experiment: as above; settings: taken from patients, Central SRI of Tuberculosis RAMS 1997
[2] = test system: Semiresistant (resistant to streptomycin, rifamycin and isoniazid); experiment: as above; settings: taken from patients, Central SRI of Tuberculosis RAMS 1997
[3] = test system: Strain resistant to isoniazid; settings: taken from patients, Sverdlovsk Regional SRI of Phthisiopulmonology 1998
[4] = test system: Strain resistant to streptomycin and rifamycin; settings: taken from patients, Sverdlovsk Regional SRI of Phthisiopulmonology 1998

| SMILES | Inhibiting level [1] [µg/mL] | Inhibiting level (Resistant to rifamycin) [µg/mL] | Inhibiting level (Resistant to isoniazid) [µg/mL] | Inhibiting level [2] [µg/mL] | Inhibiting level [3] [µg/mL] | Inhibiting level [4] [µg/mL] |
| --- | --- | --- | --- | --- | --- | --- |
| O=C(NN=Cc1ccccc1OCCOCCOc1ccccc1C=NNC(=O)c1ccncc1)c1ccncc1 [1,5-Bis(2-isonicotinoyl hydrazonomethylphenoxy)-3-oxapentane] | 1.56 | 0.20 | 18.80 | 1.57 | – | – |
| COc1cc(C=NNC(=O)c2ccccc2)ccc1OCCOc1ccc(C=NNC(=O)c2ccccc2)cc1OC [1,2-Bis(2-methoxy-4-benzoyl hydrazonomethylphenoxy)-ethane] | – | – | – | – | >5.0 | 0.8 |
| [H]/N=C(/N)N[C@H]1[C@H](O)[C@@H](O)[C@H](O[C@@H]2O[C@@H](C)[C@](O)(C=O)[C@H]2O[C@@H]2O[C@@H](CO)[C@H](O)[C@@H](O)[C@@H]2NC)[C@@H](N/C(N)=N\[H])[C@@H]1O [Streptomycin, reference compound] | – | – | – | – | >50.0 | 10.0 |
| O=C(NN=Cc1ccccc1OCCCCOCCCCOc1ccccc1C=NNC(=O)c1cccnc1)c1cccnc1 [1,9-Bis(2-nicotinoyl hydrazonomethylphenoxy)-5-oxanonon] | – | – | – | – | >5.0 | 0.4 |
| NNC(=O)c1ccncc1 [Isoniazid, hydrazide of isonicotinic acid, reference compound] | 0.29 | 0.29 | >100 | 2.125 | 5.0 | 0.1 |
| O=Cc1ccc(Cl)cc1OCCOc1cc(Cl)ccc1C=O [1,2-Bis(2-formyl-5-chlorphenoxy)-ethane] | – | – | – | – | 5.0 | 0.4 |
| CO[C@H]1/C=C/O[C@@]2(C)Oc3c(C)c(O)c4c(O)c(cc(O)c4c3C2=O)NC(=O)/C(C)=C\C=C\[C@H](C)[C@H](O)[C@@H](C)[C@@H](O)[C@@H](C)[C@H](OC(C)=O)[C@@H]1C [Rifamycin, reference compound] | – | – | – | – | – | 20.0 |
| O=C(NN=Cc1c(OCCOc2ccc3ccccc3c2C=NNC(=O)c2ccccc2)ccc2ccccc12)c1ccccc1 [1,2-Bis[2(benzoyl hydrazonomethylnaphthoxy-2)]-ethane] | – | – | – | – | 5.0 | 0.4 |
